In PubChem BioAssay AID330 (DTP/NCI, 2004):
“And” between values parts separate entries of the source, which are not always exact repeats. Equal values may be shown once. Toxic doses and inconclusive results are not listed.

Tested on: P388 leukemia ip, CD2F1 mice, survival T/C
Assay: NCI In Vivo Anticancer Drug Screen. Data for tumor model P388 Leukemia (intraperitoneal) in CD2F1 (CDF1) mice
Conditions: endpoint: median survival time, higher = longer survival
Outline: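 Mice carrying the transplanted tumor received test compound or vehicle. Survival was recorded in each group, and the value is the treated-group measurement divided by that of the vehicle-treated control group.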

[1] = dose: 12.5 mg/kg/injection, schedule: Q01DX009 (ip), vehicle: distilled water + Tween-80
[2] = dose: 25.0 mg/kg/injection, schedule: Q01DX009 (ip), vehicle: distilled water + Tween-80
[3] = dose: 50.0 mg/kg/injection, schedule: Q01DX009 (ip), vehicle: Klucel (hydroxypropylcellulose) (HPC)
[4] = dose: 12.5 mg/kg/injection, schedule: Q01DX009 (ip), vehicle: saline with Tween-80
[5] = dose: 25.0 mg/kg/injection, schedule: Q01DX009 (ip), vehicle: saline with Tween-80
[6] = dose: 50.0 mg/kg/injection, schedule: Q01DX009 (ip), vehicle: saline with Tween-80

SMILES: CC1(C)N=C(N)N=C(N)N1c1ccc(CCCCc2ccc(S(=O)(=O)F)cc2Cl)c(Cl)c1
- T/C (dose: 0.13 mg/kg/injection, schedule: Q03HX016 (ip), vehicle: other): 107 % of control
- T/C (dose: 0.25 mg/kg/injection, schedule: Q03HX016 (ip), vehicle: other): 116 % of control
- T/C (dose: 0.5 mg/kg/injection, schedule: Q03HX016 (ip), vehicle: other): 124 % of control
- T/C (dose: 1.0 mg/kg/injection, schedule: Q01DX005 (ip), vehicle: other): 111 % of control
- T/C (dose: 1.98 mg/kg/injection, schedule: Q01DX009 (ip), vehicle: saline with Tween-80): 165 % of control
- T/C (dose: 2.0 mg/kg/injection, schedule: Q01DX005 (ip), vehicle: other): 120 % of control
- T/C (dose: 2.0 mg/kg/injection, schedule: Q04DX002 (ip), vehicle: other): 109 % of control
- T/C (dose: 2.82 mg/kg/injection, schedule: Q01DX009 (ip), vehicle: saline with Tween-80): 168 % of control
- T/C (dose: 3.89 mg/kg/injection, schedule: Q01DX009 (ip), vehicle: Klucel (hydroxypropylcellulose) (HPC)): 152 % of control and 163 % of control
- T/C (dose: 4.0 mg/kg/injection, schedule: Q01DX005 (ip), vehicle: other): 121 % of control
- T/C (dose: 4.0 mg/kg/injection, schedule: Q04DX002 (ip), vehicle: other): 118 % of control
- T/C (dose: 4.03 mg/kg/injection, schedule: Q01DX009 (ip), vehicle: saline with Tween-80): 176 % of control
- T/C (dose: 5.76 mg/kg/injection, schedule: Q01DX009 (ip), vehicle: saline with Tween-80): 176 % of control
- T/C (dose: 6.25 mg/kg/injection, schedule: Q01DX009 (ip), vehicle: distilled water + Tween-80): 155 % of control
- T/C (dose: 6.25 mg/kg/injection, schedule: Q01DX009 (ip), vehicle: saline with Tween-80): 163 % of control
- T/C (dose: 6.48 mg/kg/injection, schedule: Q01DX009 (ip), vehicle: Klucel (hydroxypropylcellulose) (HPC)): 164 % of control
- T/C (dose: 8.0 mg/kg/injection, schedule: Q01DX005 (ip), vehicle: other): 119 % of control
- T/C (dose: 8.0 mg/kg/injection, schedule: Q04DX002 (ip), vehicle: other): 116 % of control
- T/C (dose: 8.23 mg/kg/injection, schedule: Q01DX009 (ip), vehicle: saline with Tween-80): 197 % of control
- T/C (dose: 8.64 mg/kg/injection, schedule: Q01DX005 (ip), vehicle: Klucel (hydroxypropylcellulose) (HPC)): 156 % of control
- T/C (dose: 10.8 mg/kg/injection, schedule: Q01DX009 (ip), vehicle: Klucel (hydroxypropylcellulose) (HPC)): 166 % of control and 182 % of control
- T/C (dose: 11.76 mg/kg/injection, schedule: Q01DX009 (ip), vehicle: saline with Tween-80): 212 % of control
- T/C [1]: 155 % of control
- T/C (dose: 16.0 mg/kg/injection, schedule: Q01DX005 (ip), vehicle: other): 118 % of control
- T/C (dose: 16.0 mg/kg/injection, schedule: Q04DX002 (ip), vehicle: other): 106 % of control
- T/C (dose: 16.8 mg/kg/injection, schedule: Q01DX009 (ip), vehicle: other): 100 % of control
- T/C (dose: 16.8 mg/kg/injection, schedule: Q01DX009 (ip), vehicle: saline with Tween-80): 250 % of control
- T/C (dose: 18.0 mg/kg/injection, schedule: Q01DX009 (ip), vehicle: Klucel (hydroxypropylcellulose) (HPC)): 163 % of control and 214 % of control
- T/C (dose: 24.0 mg/kg/injection, schedule: Q01DX005 (ip), vehicle: Klucel (hydroxypropylcellulose) (HPC)): 164 % of control
- T/C (dose: 24.0 mg/kg/injection, schedule: Q01DX009 (ip), vehicle: saline with Tween-80): 256 % of control
- T/C [2]: 160 % of control
- T/C (dose: 25.0 mg/kg/injection, schedule: Q01DX009 (oral), vehicle: saline with Tween-80): 102 % of control
- T/C (dose: 30.0 mg/kg/injection, schedule: Q01DX009 (ip), vehicle: Klucel (hydroxypropylcellulose) (HPC)): 163 % of control and 236 % of control
- T/C (dose: 32.0 mg/kg/injection, schedule: Q04DX002 (ip), vehicle: other): 111 % of control
- T/C (dose: 34.28 mg/kg/injection, schedule: Q01DX009 (ip), vehicle: saline with Tween-80): 228 % of control
- T/C (dose: 40.0 mg/kg/injection, schedule: Q01DX005 (ip), vehicle: Klucel (hydroxypropylcellulose) (HPC)): 172 % of control
- T/C [3]: 87 % of control
- T/C (dose: 50.0 mg/kg/injection, schedule: Q01DX009 (oral), vehicle: saline with Tween-80): 102 % of control
- T/C (dose: 75.0 mg/kg/injection, schedule: Q01DX009 (ip), vehicle: saline with Tween-80): 195 % of control
- T/C (dose: 89.0 mg/kg/injection, schedule: Q04DX003 (ip), vehicle: saline with Tween-80): 173 % of control
- T/C (dose: 100.0 mg/kg/injection, schedule: Q01DX009 (oral), vehicle: saline with Tween-80): 107 % of control
- T/C (dose: 110.0 mg/kg/injection, schedule: Q01DX009 (ip), vehicle: saline with Tween-80): 86 % of control
- T/C (dose: 133.0 mg/kg/injection, schedule: Q04DX003 (ip), vehicle: saline with Tween-80): 188 % of control
- T/C (dose: 200.0 mg/kg/injection, schedule: Q01DX009 (oral), vehicle: saline with Tween-80): 105 % of control
- T/C (dose: 200.0 mg/kg/injection, schedule: Q04DX003 (ip), vehicle: saline with Tween-80): 307 % of control
- T/C (dose: 400.0 mg/kg/injection, schedule: Q01DX009 (oral), vehicle: saline with Tween-80): 99 % of control

SMILES: O=C(O)c1cc2c(cc1S(=O)(=O)O)C1C(C3C2C2(Cl)C(Cl)=C(Cl)C3(Cl)C2(Cl)Cl)C2(Cl)C(Cl)=C(Cl)C1(Cl)C2(Cl)Cl (stereo not given)
- T/C (dose: 50.0 mg/kg/injection, schedule: Q01DX009 (ip), vehicle: saline): 105 % of control
- T/C (dose: 100.0 mg/kg/injection, schedule: Q01DX009 (ip), vehicle: saline): 100 % of control
- T/C (dose: 200.0 mg/kg/injection, schedule: Q01DX009 (ip), vehicle: saline): 100 % of control

SMILES: CC1(C)CC(=O)C=C(OS(=O)(=O)C(F)(F)F)C1
- T/C [1]: 111 % of control
- T/C [2]: 112 % of control
- T/C (dose: 50.0 mg/kg/injection, schedule: Q01DX009 (ip), vehicle: distilled water + Tween-80): 98 % of control

SMILES: Cc1[nH]c(C)c(Br)c(=O)c1F
- T/C (dose: 6.25 mg/kg/injection, schedule: Q01DX009 (ip), vehicle: Klucel (hydroxypropylcellulose) (HPC)): 116 % of control
- T/C (dose: 12.5 mg/kg/injection, schedule: Q01DX009 (ip), vehicle: Klucel (hydroxypropylcellulose) (HPC)): 110 % of control
- T/C (dose: 25.0 mg/kg/injection, schedule: Q01DX009 (ip), vehicle: Klucel (hydroxypropylcellulose) (HPC)): 100 % of control

SMILES: C=CCC(C(=O)O)C1(C(=O)O)CCCCCC1 (stereo not given)
- T/C (dose: 100.0 mg/kg/injection, schedule: Q04DX002 (ip), vehicle: saline with Tween-80): 94 % of control
- T/C (dose: 200.0 mg/kg/injection, schedule: Q04DX002 (ip), vehicle: saline with Tween-80): 93 % of control
- T/C (dose: 400.0 mg/kg/injection, schedule: Q04DX002 (ip), vehicle: saline with Tween-80): 92 % of control

SMILES: CC(=O)Cc1cc(-c2cc(CC(C)=O)on2)no1
- T/C (dose: 60.0 mg/kg/injection, schedule: Q01DX005 (ip), vehicle: saline): 103 % of control
- T/C (dose: 120.0 mg/kg/injection, schedule: Q01DX005 (ip), vehicle: saline): 99 % of control
- T/C (dose: 240.0 mg/kg/injection, schedule: Q01DX005 (ip), vehicle: saline): 100 % of control

SMILES: C/C(=N/NC(N)=S)C1CCC2C3CCC4CCCCC4(C)C3CC(O)C12C (stereo not given)
- T/C [4]: 101 % of control
- T/C [5]: 93 % of control
- T/C [6]: 92 % of control

SMILES: O=S(=O)(F)C(Br)(Br)S(=O)(=O)F
- T/C (dose: 50.0 mg/kg/injection, schedule: Q01DX005 (ip), vehicle: Klucel (hydroxypropylcellulose) (HPC)): 97 % of control
- T/C (dose: 100.0 mg/kg/injection, schedule: Q01DX005 (ip), vehicle: Klucel (hydroxypropylcellulose) (HPC)): 97 % of control

SMILES: CC(Br)C(=O)c1ccc2cc(Br)c3ccccc3c2c1 (stereo not given)
- T/C [4]: 100 % of control
- T/C [5]: 106 % of control
- T/C [6]: 116 % of control

SMILES: CC1(C)C(=O)C2(CCCCC2)C1N1CCCCC1 (stereo not given)
- T/C [3]: 96 % of control
- T/C (dose: 100.0 mg/kg/injection, schedule: Q01DX009 (ip), vehicle: Klucel (hydroxypropylcellulose) (HPC)): 98 % of control
- T/C (dose: 200.0 mg/kg/injection, schedule: Q01DX009 (ip), vehicle: Klucel (hydroxypropylcellulose) (HPC)): 107 % of control

SMILES: c1ccc2nc(NCCSSCCNc3cnc4ccccc4n3)cnc2c1
- T/C (dose: 100.0 mg/kg/injection, schedule: Q01DX009 (ip), vehicle: saline with Tween-80): 86 % of control
- T/C (dose: 200.0 mg/kg/injection, schedule: Q01DX009 (ip), vehicle: saline with Tween-80): 86 % of control
- T/C (dose: 400.0 mg/kg/injection, schedule: Q01DX009 (ip), vehicle: saline with Tween-80): 86 % of control
